Assay [1] deals with Z. tritici strain Mg Tri-R6. Description: Efficacy on first-leaf fragments of treated wheat plantlets cv. Alixan inoculated with Z. tritici, AUDPC-based (Examples 1-3). The format is in vivo, Zymoseptoria tritici. To be noted: from AUDPC (21 and 28 dpi), percent of untreated control. As for the experimental part: Winter wheat plants cv. Alixan (Limagrain) at the BBCH 12 growth stage are treated with a mixture of the compound of Formula I and a fungicide selected from the group consisting of fluindapyr, pydiflumetofen, mefentrifluconazole, fenpicoxamid, inpyrfluxam and isofetamid.
The compound of Formula I and the fungicide (A) are applied at different rates and at different weight ratio with a hand sprayer at 2 bars calibrated. For each condition tested, three replicates (pots) of 6 wheat plants are used.
Fragments of the first leaf are cut and are transferred into a Petri dish containing adapted water agar (6 leaf fragments per Petri dish). Fragments are inoculated with a calibrated pycnospores suspension of Z. tritici strain Mg Tri-R6.
After inoculation, Petri dishes are incubated in a climatic chamber having a temperature of 20° C. day/17° C. night, photoperiod of 16 h light/8 h dark, and controlled relative humidity. Disease assessments are carried out 21 days post inoculation (dpi) and 28 dpi by measuring the length of the necrosis of the leaf fragment. The intensity of infection is then determined as a percent of the total length of the leaf fragment.
The efficacy is calculated based on the Area Under the Disease Progress Curve (AUDPC) which is a quantitative measure of disease intensity over time. The most commonly used method for estimating the AUDPC, the trapezoidal method, is performed for each time interval by multiplying the average disease intensity between each pair of adjacent time points by the corresponding time interval.
The fungicide efficacies are determined from the AUDPC values and expressed as a percent of the untreated control.
The compound of Formula I and mefentrifluconazole were applied with a hand sprayer at 2 bars calibrated to deliver the equivalent of 200 L/ha. Three replicates (pots) of 6 wheat plants each were used for each treatment group.
Fragments of the first leaf were cut and transferred into a Petri dish containing adapted water agar (6 leaf fragments per Petri dish). Fragments were inoculated with a calibrated pycnospores suspension of Z. tritici strain Mg Tri-R6.
After inoculation, Petri dishes were incubated in a climatic chamber having a temperature of 20° C. day/17° C. night, photoperiod of 16 h light/8 h dark, and controlled relative humidity. Disease assessments were carried out 21 days post inoculation (dpi) and 28 dpi by measuring the length of the necrosis of the leaf fragment. The intensity of infection was then determined as percent of the total length of the leaf fragment.
(§1) The efficacy was calculated based on the Area Under the Disease Progress Curve (AUDPC) which is a quantitative measure of disease intensity over time. The most commonly used method for estimating the AUDPC, the trapezoidal method, was performed for each time interval by multiplying the average disease intensity between each pair of adjacent time points by the corresponding time interval.
(§2) The fungicide efficacies were determined from the AUDPC values and expressed as a percent of the untreated control.
The compound of Formula I and fenpicoxamid were applied with a hand sprayer at 2 bars calibrated to deliver the equivalent of 200 L/ha. […]
After inoculation, Petri dishes were incubated in a climatic chamber having a temperature of 20° C. day/17° C. night, photoperiod of 16 h light/8 h dark and controlled relative humidity. […] The intensity of infection was then determined as percent of the total length of the leaf fragment. […]

Assay [2] has as its system Z. tritici strain Mg Tri-R6. In words: Efficacy on first-leaf fragments of treated wheat plantlets cv. Alixan inoculated with Z. tritici, AUDPC-based (Example 4, pydiflumetofen). The format is in vivo, Zymoseptoria tritici. The settings on record: from AUDPC (21 and 28 dpi). As for the experimental part: Winter wheat plants cv. Alixan (Limagrain) at the BBCH 12 growth stage were treated with mixture of Compound of Formula I and pydiflumetofen at several rates with a hand sprayer at 2 bars calibrated to deliver the equivalent of 200 L/ha. The Compound of Formula I was applied at 5 g a.i./ha. Pydiflumetofen was applied at 0.00032-0.0016 and 0.008 g a.i./ha. Three replicates (pots) of 6 wheat plants each were used for each condition tested.
After treatment, wheat plants were left to dry at room temperature for 1 hour and then incubated in a climatic chamber having a temperature of 24° C. day/18° C. night, photoperiod of 16 h light/8 h dark and a relative humidity of 65%. Fragments of the first leaf were cut and transferred in Petri dish containing adapted water agar (6 leaf fragments per Petri dish). Fragments were inoculated with a calibrated pycnospores suspension of Z. tritici strain Mg Tri-R6.
After inoculation, Petri dishes were incubated in a climatic chamber having a temperature of 20° C. day/17° C. night, photoperiod of 16 h light/8 h dark and controlled relative humidity.
Disease assessments were carried out 21 days post inoculation (dpi) and 28 dpi by measuring the length of the necrosis of the leaf fragment. The intensity of infection was then determined in percent of the total length of the leaf fragment.
as §1, §2

Where [3] appears, read: fungicide (A) alone, rate 0.39 g a.i./ha.

As to `Cc1ccc(S(=O)(=O)n2cc(F)c(=N)n(C)c2=O)cc1` [Compound of Formula I, 5-fluoro-4-imino-3-methyl-1-tosyl-3,4-dihydropyrimidin-2(1H)-one], the “Observed Efficacy” value is 56.4% in assay [1] (compound of Formula I alone, rate 5 g a.i./ha); 69.1% in assay [1] (compound of Formula I alone, rate 10 g a.i./ha); 63.2% in assay [2] (compound of Formula I alone, rate 5 g a.i./ha, Example 4). Regarding `COc1ccnc(C(=O)N[C@H]2COC(=O)[C@H](Cc3ccccc3)[C@@H](OC(=O)C(C)C)[C@H](C)OC2=O)c1OCOC(=O)C(C)C` [Fenpicoxamid, (3S,6S,7R,8R)-8-benzyl-3-{3-[(isobutyryloxy)methoxy]-4-methoxypyridine-2-carboxamido}-6-methyl-4,9-dioxo-1,5-dioxonan-7-yl-isobutyrate], the “Observed Efficacy” value in assay [1] (setting [3]) stood at 56.0%. Take `CC1CC(C)(C)c2c(F)ccc(NC(=O)c3cn(C)nc3C(F)F)c21` (stereo not drawn) [Fluindapyr, 3-(Difluoromethyl)-N-(7-fluoro-2,3-dihydro-1,1,3-trimethyl-1H-inden-4-yl)-1-methyl-1H-pyrazole-4-carboxamide]: the “Observed Efficacy” value in assay [1] (setting [3]) was determined as 43.5%.

Regarding `CC(O)(Cn1cncn1)c1ccc(Oc2ccc(Cl)cc2)cc1C(F)(F)F` (stereo not drawn) [Mefentrifluconazole, 2-[4-(4-chlorophenoxy)-2-(trifluoromethyl)phenyl]-1-(1,2,4-triazol-1-yl)propan-2-ol], the “Observed Efficacy” value in assay [1] (setting [3]) is on record as 46.8%. As for `CON(C(=O)c1cn(C)nc1C(F)F)[C@@H](C)Cc1c(Cl)cc(Cl)cc1Cl` [Pydiflumetofen, 3-(difluoromethyl)-N-methoxy-1-methyl-N-[(2S)-1-(2,4,6-trichlorophenyl)propan-2-yl]-1H-pyrazole-4-carboxamide], the “Observed Efficacy” value came out at 21.3% in assay [2] (pydiflumetofen alone, rate 0.00032 g a.i./ha); 35.6% in assay [2] (pydiflumetofen alone, rate 0.0016 g a.i./ha); 44.0% in assay [2] (pydiflumetofen alone, rate 0.008 g a.i./ha).
